Assay results taken from patent publication US7763287B2, “Extract of Cercis chinensis having anti-oxidant activity and anti-aging activity, and cosmetical composition containing the extract for anti-oxidation, skin-aging protection and wrinkle improvement” (Hankook Pharm. Co., Inc., priority 2002, dated 2010).

How the values were obtained:
[1] = tested on: HEK-N/F cells; assay: Protection of cells from oxidative damage induced by t-butylhydroperoxide; format: cell-based, human; conditions: 1.5 mM t-butylhydroperoxide 3 hours
Protocol: t-butylhydroperoxide is metabolized into a free radical intermediate as it comes in a cell, so that it causes lipid peroxidation, resulting in cell damage. This phenomenon is similar to that caused by oxidataive stress accumulated in cells and tissues. […] HEK-N/F, an epidermal cell line of a newborn baby, was treated with 1.5 mM of t-butylhydroxyperoxide for 3 hours.

[2] = DPPH radical scavenging activity; format: biochemical
Protocol: In order to extract an effective ingredient having an anti-oxidant activity from Cercis chinensis, an experiment was performed following the procedure represented in a schematic diagram of FIG. 1. Particularly, 1 kg of leaves and stems of Cercis chinensis, dried in shadow, were grinded to powder using a pulverizer, which was extracted by ethanol (EtOH) at room temperature twice at intervals of two weeks. For the extraction, ethanol solutions were prepared by adding ethanol gradually, 10% at a time, from 0% to 100%. The prepared ethanol solutions were used for the extraction. […] But, it looses absorbance when being scavenged. Based on that point, an anti-oxidant activity can be measured using DPPH. […] Then, each solution was distributed into a 96 well plate by 10 μl each, into which 190 μl of DPPH(Sigma, St. Louis, Mo, USA) solution whose ethanol concentration was 2×10^−4 M/ml was added. The plate was just left at room temperature for 30 minutes. Finally, OD517 was measured at 517 nm. For a control, DMSO was added instead of the sample, and changes of optical density were investigated. […] DDPH Radical Scavenging Activity (%)=(Acontrol−Asample)/(Acontrol)×100 <Mathematica Formula 1>
Acontrol: Optical density of control group (sample was not added),
Asample: Optical density of experimental group (sample was added).
In order to identify a fraction having an anti oxidant activity among hexane Fr, EtOAc Fr and BuOH Fr obtained above, a DPPH radical scavenging activity was measured using each extract of each fraction following the method used above. At this time, vitamin E, known to have high DPPH radical scavenging activity, was used as a comparing group.
At this time, BHA (tert-butyl-4 hydroxyanisole) and α-tocopherol, synthetic anti-oxidant agents, were used as positive controls.

With `O=c1c(O)c(-c2cc(O)c(O)c(O)c2)oc2cc(O)cc(O)c12` [Chemical Formula 9, myricetin] the “Cell survival rate (%)” value [1] was 61.0±4.5%, the “TBARS (pmol/mg protein)” value ([1]; compound 50.0 µg/ml) was 810.7 ± 77.0 pmol/mg protein and the “DPPH radical scavenging activity (in words)” value [2] was “strong radical scavenging activity”. The “DPPH radical scavenging activity IC50” value ([2]; Table 3) was 7.3 ± 0.3 µg/mL.
